In patent US20060069132A1, “Azolecarboxamide herbicides” (priority 2004, published 2006):

How the values were obtained:
barnyardgrass [1] = experiment: Test B pre-/postemergence herbicide test; type: in vivo, Echinochloa crus-galli; settings: for Barnyardgrass plant response rating: postemergence
Outline: (§1)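 Response was scored visually 13 to 15 days after treatment against untreated greenhouse controls, 0 meaning no effect and 100 complete control. Formulations (solvent mixture plus surfactant) went onto soil after planting, onto foliage of 1- to 4-leaf plants, and onto 2-leaf plants in a flooded paddy set including rice and barnyardgrass.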

Surinam grass = experiment: Test B pre-/postemergence herbicide test; type: in vivo, Urochloa decumbens; settings: for Surinam Grass plant response rating: postemergence
Outline: (§2)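 Visual rating, 0 (no effect) to 100 (complete control), versus untreated controls after 13–15 d in greenhouse. Pre- and postemergence applications (postemergence plants 2–18 cm, 1–4 leaves); flooded paddy arm at 2-leaf stage. Compounds in non-phytotoxic solvent plus surfactant.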

cocklebur = experiment: Test B pre-/postemergence herbicide test; type: in vivo, Xanthium strumarium; settings: for Cocklebur plant response rating: postemergence
Outline: as §1

corn = experiment: Test B pre-/postemergence herbicide test; type: in vivo, Zea mays; settings: for Corn plant response rating: postemergence
Outline: as §2

large crabgrass = experiment: Test B pre-/postemergence herbicide test; type: in vivo, Digitaria sanguinalis; settings: for Crabgrass, Large plant response rating: postemergence
Outline: as §2

giant foxtail = experiment: Test B pre-/postemergence herbicide test; type: in vivo, Setaria faberi; settings: for Foxtail, Giant plant response rating: postemergence
Outline: as §2

lambsquarters = experiment: Test B pre-/postemergence herbicide test; type: in vivo, Chenopodium album; settings: for Lambsquarters plant response rating: postemergence
Outline: as §2

morningglory = experiment: Test B pre-/postemergence herbicide test; type: in vivo, Ipomoea coccinea; settings: for Morningglory plant response rating: postemergence
Outline: as §1

pigweed = experiment: Test B pre-/postemergence herbicide test; type: in vivo, Amaranthus retroflexus; settings: for Pigweed plant response rating: postemergence
Outline: as §2

velvetleaf = experiment: Test B pre-/postemergence herbicide test; type: in vivo, Abutilon theophrasti; settings: for Velvetleaf plant response rating: postemergence
Outline: as §2

blackgrass = experiment: Test B postemergence herbicide test; type: in vivo, Alopecurus myosuroides; settings: postemergence
Outline: (§3)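 Visual control ratings, 0–100 versus untreated controls, taken after 13 to 15 days in the greenhouse. Blackgrass received a postemergence spray at the 1- to 4-leaf stage (2–18 cm); ducksalad, umbrella sedge and barnyardgrass were flooded-paddy treated at 2 leaves.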

wheat = experiment: Test B postemergence herbicide test; type: in vivo, Triticum aestivum; parameters: key to Wheat plant response rating: 0 = no effect, 100 = complete control; settings: postemergence
Outline: (§4)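 Formulated test chemicals went onto postemergence plants measuring 2 to 18 cm, at one to four leaves. For the paddy assay, species had reached two leaves. Scoring took place 13–15 days later by eye, relative to untreated plants, using 0 for no effect up to 100 for full control.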

wild oat = experiment: Test B postemergence herbicide test; type: in vivo, Avena fatua; settings: postemergence
Outline: as §4

rice = experiment: Test B flooded paddy test; type: in vivo, Oryza sativa; settings: 1000 g ai/ha, scale 0 to 100 (0 no effect, 100 complete control)
Outline: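 Read-out: visual comparison with controls, scored 0 to 100, where 100 means complete control and 0 no effect. Formulated chemicals were applied postemergence to plants 2–18 cm tall (1- to 4-leaf), or to flooded-paddy plants at the 2-leaf stage, then held 13 to 15 days under glass.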

[2] = system: small flower umbrella sedge; experiment: Test B flooded paddy test; type: in vivo, Cyperus difformis; settings: 1000 g ai/ha, scale 0 to 100 (0 no effect, 100 complete control)
Outline: as §3

ducksalad = experiment: Test B flooded paddy test; type: in vivo, Heteranthera limosa; settings: 1000 g ai/ha, scale 0 to 100 (0 no effect, 100 complete control)
Outline: as §3

barnyardgrass [3] = experiment: Test B flooded paddy test; type: in vivo, Echinochloa crus-galli; settings: 1000 g ai/ha, scale 0 to 100 (0 no effect, 100 complete control)
Outline: as §3

[4] = 125 g ai/ha, 0 is no effect, 100 is complete control, preemergence
[5] = 125 g ai/ha, visual rating, scale 0 (no effect) to 100 (complete control)

CCOC(=O)c1ccc(F)c(NC(=S)c2cc(C(C)(C)C)nn2CC)c1 [Compound 346]
40: Blackgrass plant response rating (blackgrass; [5]) | Oat, Wild plant response rating (wild oat; [5]) | Rice plant response rating (rice) | Barnyardgrass plant response rating (barnyardgrass [3])
0: Plant response rating (0 to 100 scale), Barnyardgrass (barnyardgrass [1]; [4]) | Barnyardgrass plant response rating (barnyardgrass [1]; 31 g ai/ha, scale 0 to 100) | Surinam Grass plant response rating (Surinam grass; 31 g ai/ha, scale 0 to 100) | Plant response rating (0 to 100 scale), Cocklebur (cocklebur; [4]) | Plant response rating (0 to 100 scale), Corn (corn; [4]) | Corn plant response rating (corn; [5]) | Corn plant response rating (corn; 31 g ai/ha, scale 0 to 100) | Crabgrass, Large plant response rating (large crabgrass; [5]) | Crabgrass, Large plant response rating (large crabgrass; 31 g ai/ha, scale 0 to 100) | Foxtail, Giant plant response rating (giant foxtail; 31 g ai/ha, scale 0 to 100) | Plant response rating (0 to 100 scale), Lambsquarters (lambsquarters; [4]) | Lambsquarters plant response rating (lambsquarters; 31 g ai/ha, scale 0 to 100) | Plant response rating (0 to 100 scale), Morningglory (morningglory; [4]) | Morningglory plant response rating (morningglory; 31 g ai/ha, scale 0 to 100) | Plant response rating (0 to 100 scale), Pigweed (pigweed; [4]) | Plant response rating (0 to 100 scale), Velvetleaf (velvetleaf; [4]) | Velvetleaf plant response rating (velvetleaf; 31 g ai/ha, scale 0 to 100)
10: Plant response rating (0 to 100 scale), Surinam Grass (Surinam grass; [4]) | Surinam Grass plant response rating (Surinam grass; [5]) | Cocklebur plant response rating (cocklebur; 31 g ai/ha, scale 0 to 100) | Morningglory plant response rating (morningglory; [5]) | Velvetleaf plant response rating (velvetleaf; [5]) | Wheat plant response rating (wheat; 31 g ai/ha, scale 0 to 100)
80: Sedge, Umbrella plant response rating [2]
70: Pigweed plant response rating (pigweed; [5])
50: Plant response rating (0 to 100 scale), Foxtail, Giant (giant foxtail; [4])
20: Barnyardgrass plant response rating (barnyardgrass [1]; [5]) | Foxtail, Giant plant response rating (giant foxtail; [5]) | Wheat plant response rating (wheat; [5])
30: Cocklebur plant response rating (cocklebur; [5]) | Lambsquarters plant response rating (lambsquarters; [5]) | Blackgrass plant response rating (blackgrass; 31 g ai/ha, scale 0 to 100) | Oat, Wild plant response rating (wild oat; 31 g ai/ha, scale 0 to 100)
60: Plant response rating (0 to 100 scale), Crabgrass, Large (large crabgrass; [4]) | Pigweed plant response rating (pigweed; 31 g ai/ha, scale 0 to 100) | Ducksalad plant response rating (ducksalad)
